Measurements from patent publication US20260109707A1, “HETEROBIFUNCTIONAL COMPOUNDS AND METHODS OF TREATING DISEASE” (Halda Therapeutics OpCo. Inc., priority 2022, published 2026).
Where two headings read alike, the source gives them in different places.

Tests used:
VCaP cells = test: Cellular growth inhibition assay for VCaP cells (CellTiter-Glo, 72 hours); type: cell-based, human
Method in brief: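 Luminescent viability signal after 72 h of compound exposure gave GI50 values by four-parameter nonlinear regression. Compounds were added in 0.5% DMSO to cells plated 24 h earlier at 5000/well in DMEM containing 10% FBS.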

[1] = test system: T-Rex 293 cell line SC3 cells lacking increased expression of androgen receptor protein; test: Cellular growth inhibition assay, T-Rex 293 SC3 cells without doxycycline (CellTiter-Glo, 72 hours); type: cell-based; conditions: T-Rex 293 cell line SC3 cells not exposed to doxycycline (lacking increased androgen receptor expression)
Method in brief: (§1)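 Growth inhibition is measured in an inducible AR-expressing T-Rex 293 clone, SC3, cultured with or without 10 ng/mL doxycycline in hormone-depleted medium. Test compounds are applied for 72 hours. GI50 values derive from CellTiter-Glo 2.0 signal fitted by four-parameter regression.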

T47D cells = test: Cellular growth inhibition assay for T47D cells (CellTiter-Glo, 72 hours); type: cell-based, human; conditions: 72 hours treatment
Method in brief: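 Cells are plated at 3000/well and allowed 24 h before treatment. Test compound in medium containing 0.5% DMSO is then added, with DMSO-only wells as negative control, and plates are incubated 72 h at 37 °C. ATP luminescence (CellTiter-Glo 2.0) is then fitted to four parameters to derive GI50.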

[2] = test system: T-Rex 293 cell line SC3 cells having increased expression of androgen receptor protein due to exposure to doxycycline; test: Cellular growth inhibition assay, T-Rex 293 SC3 cells with doxycycline (CellTiter-Glo, 72 hours); type: cell-based; conditions: T-Rex 293 SC3 cells with increased androgen receptor expression due to doxycycline (10 ng/mL)
Method in brief: as §1

Structure (SMILES)	GI50 (VCaP cells; Homo sapiens, VCaP, 72 h) [µM]	GI50 (T47D cells; Homo sapiens, T47D, 72 h) [µM]	GI50 (VCaP cells) [µM]	GI50 (T47D cells) [µM]	GI50 ([1]; 72 h) [µM]	GI50 ([2]; 72 h) [µM]	GI50 [1] [µM]	GI50 [2] [µM]
Cc1sc2c(c1C)C(c1ccc([C@H]3CC[C@]4(C3)CN(c3ccc(C(=O)N[C@H]5CC[C@H](Oc6ccc(C#N)c(Cl)c6)CC5)nn3)CCO4)cc1)=N[C@@H](Cc1ncco1)c1nnc(C)n1-2 [I-363]	> 3	> 3	–	–	> 3	> 3	–	–
Cc1sc2c(c1C)C(c1ccc([C@H]3CC[C@@]4(C3)CN(c3ccc(C(=O)N[C@H]5CC[C@H](Oc6ccc(C#N)c(Cl)c6)CC5)nn3)CCO4)cc1)=N[C@@H](Cc1ncco1)c1nnc(C)n1-2 [I-364]	< 0.5	< 0.5	–	–	> 3	< 0.5	–	–
Cc1sc2c(c1C)C(c1ccc(CC3CCC4(CC3)CCN(c3ccc(C(=O)N[C@H]5CC[C@H](Oc6ccc(C#N)c(Cl)c6)CC5)nn3)CC4)cc1)=N[C@@H](Cc1ncco1)c1nnc(C)n1-2 [I-365]	–	–	< 0.5	< 0.5	–	–	0.5 to 1.5	< 0.5
Cc1sc2c(c1C)C(c1ccc(CN3CCC4(CC3)CCN(c3ccc(C(=O)N[C@H]5CC[C@H](Oc6ccc(C#N)c(Cl)c6)CC5)nn3)CC4)cc1)=N[C@@H](Cc1ncco1)c1nnc(C)n1-2 [I-366]	< 0.5	< 0.5	–	–	< 0.5	< 0.5	–	–
Cc1sc2c(c1C)C(c1ccc(N3CCC4(CCCN(c5ccc(C(=O)N[C@H]6CC[C@H](Oc7ccc(C#N)c(Cl)c7)CC6)nn5)C4)CC3)cc1)=N[C@@H](Cc1ncco1)c1nnc(C)n1-2 [I-367]	< 0.5	< 0.5	–	–	< 0.5	< 0.5	–	–
Cc1sc2c(c1C)C(c1ccc(N3CCC4(CC3)CCN(c3ccc(C(=O)N[C@H]5CC[C@H](Oc6ccc(C#N)c(Cl)c6)CC5)nn3)C4)cc1)=N[C@@H](Cc1ncco1)c1nnc(C)n1-2 [I-368]	< 0.5	< 0.5	–	–	< 0.5	< 0.5	–	–
Cc1sc2c(c1C)C(c1ccc(-c3ccc(C4CCN(c5ccc(C(=O)NC6CCC(Oc7ccc(C#N)c(Cl)c7)CC6)nn5)CC4)cc3)cc1)=N[C@@H](Cc1ncco1)c1nnc(C)n1-2 (some centres unmarked) [I-369]	< 0.5	> 3	–	–	> 3	> 3	–	–
Cc1sc2c(c1C)C(c1ccc(-c3ccc(C4CCN(c5ccc(C(=O)NC6CCC(Oc7ccc(C#N)c(Cl)c7)CC6)nn5)CC4)cc3)cc1)=N[C@H](Cc1ncco1)c1nnc(C)n1-2 (some centres unmarked) [I-370]	> 3	0.5 to 1.5	–	–	> 3	< 0.5	–	–
Cc1sc2c(c1C)C(c1ccc(CCN3[C@@H](C)CN(c4ccc(C(=O)N[C@H]5CC[C@H](Oc6ccc(C#N)c(Cl)c6)CC5)nn4)C[C@@H]3C)cc1)=N[C@@H](Cc1ncco1)c1nnc(C)n1-2 [I-379]	< 0.5	< 0.5	–	–	< 0.5	< 0.5	–	–
Cc1sc2c(c1C)C(c1ccc([C@H]3C[C@@H](C4CC5(CCN(c6ccc(C(=O)N[C@H]7CC[C@H](Oc8ccc(C#N)c(Cl)c8)CC7)nn6)CC5)C4)C3)cc1)=N[C@@H](Cc1ncco1)c1nnc(C)n1-2 [I-380]	> 3	> 3	–	–	> 3	> 3	–	–
Cc1sc2c(c1C)C(c1ccc([C@H]3C[C@H](C4CC5(CCN(c6ccc(C(=O)N[C@H]7CC[C@H](Oc8ccc(C#N)c(Cl)c8)CC7)nn6)CC5)C4)C3)cc1)=N[C@@H](Cc1ncco1)c1nnc(C)n1-2 [I-381]	> 3	> 3	–	–	> 3	> 3	–	–
Cc1sc2c(c1C)C(c1ccc([C@H]3C[C@@H](C4CC5(CCN(c6ccc(C(=O)N[C@H]7CC[C@H](Oc8ccc(C#N)c(Cl)c8)CC7)nn6)CC5)C4)C3)cc1)=N[C@H](Cc1ncco1)c1nnc(C)n1-2 [I-382]	0.5 to 1.5	< 0.5	–	–	> 3	< 0.5	–	–
Cc1sc2c(c1C)C(c1ccc(C[C@H]3C[C@]4(CCCN(c5ccc(C(=O)N[C@H]6CC[C@H](Oc7ccc(C#N)c(Cl)c7)CC6)nn5)C4)C3)nc1)=N[C@H](Cc1ncco1)c1nnc(C)n1-2 [I-384]	> 3	> 3	–	–	> 3	> 3	–	–
Cc1sc2c(c1C)C(c1ccc(C[C@H]3C[C@]4(CCCN(c5ccc(C(=O)N[C@H]6CC[C@H](Oc7ccc(C#N)c(Cl)c7)CC6)nn5)C4)C3)nc1)=N[C@@H](Cc1ncco1)c1nnc(C)n1-2 [I-385]	< 0.5	0.5 to 1.5	–	–	> 3	< 0.5	–	–
Cc1sc2c(c1C)C(c1ccc(N3CC(C4CCN(c5ccc(C(=O)N[C@H]6CC[C@H](Oc7ccc(C#N)c(Cl)c7)CC6)nn5)CC4)C3)cc1)=N[C@@H](Cc1ncco1)c1nnc(C)n1-2 [I-386]	< 0.5	< 0.5	–	–	< 0.5	< 0.5	–	–
Cc1sc2c(c1C)C(c1ccc(N3CC(C4CC5(C4)CN(c4ccc(C(=O)N[C@H]6CC[C@H](Oc7ccc(C#N)c(Cl)c7)CC6)nn4)C5)C3)cc1)=N[C@@H](Cc1ncco1)c1nnc(C)n1-2 [I-387]	< 0.5	< 0.5	–	–	< 0.5	< 0.5	–	–
Cc1sc2c(c1C)C(c1ccc(N3CCC4(CCN(c5ccc(C(=O)N[C@H]6CC[C@H](Oc7ccc(C#N)c(Cl)c7)CC6)nn5)CC4)C3)cc1)=N[C@@H](Cc1ncco1)c1nnc(C)n1-2 [I-388]	< 0.5	< 0.5	–	–	< 0.5	< 0.5	–	–
[2H]C([2H])(c1ccc(C2=N[C@@H](Cc3ncco3)c3nnc(C)n3-c3sc(C)c(C)c32)cc1)N1CCC2(CCCN(c3ccc(C(=O)N[C@H]4CC[C@H](Oc5ccc(C#N)c(Cl)c5)CC4)nn3)C2)C1 (some centres unmarked) [I-389]	< 0.5	0.5 to 1.5	–	–	1.5 to 3	< 0.5	–	–
[2H]C([2H])(c1ccc(C2=N[C@@H](Cc3ncco3)c3nnc(C)n3-c3sc(C)c(C)c32)cc1)N1CC2(CCCN(c3ccc(C(=O)N[C@H]4CC[C@H](Oc5ccc(C#N)c(Cl)c5)CC4)nn3)C2)C1 [I-390]	< 0.5	0.5 to 1.5	–	–	0.5 to 1.5	< 0.5	–	–
Cc1sc2c(c1C)C(c1ccc(C(C)(C)N3CC4(CCN(c5ccc(C(=O)N[C@H]6CC[C@H](Oc7ccc(C#N)c(Cl)c7)CC6)nn5)CC4)C3)cc1)=N[C@@H](Cc1ncco1)c1nnc(C)n1-2 [I-391]	> 3	> 3	–	–	> 3	< 0.5	–	–

Second part, led by results:

GI50 (VCaP cells; Homo sapiens, VCaP, 72 h) [µM]	GI50 (T47D cells; Homo sapiens, T47D, 72 h) [µM]	GI50 (VCaP cells) [µM]	GI50 (T47D cells) [µM]	Structure (SMILES)	GI50 ([1]; 72 h) [µM]	GI50 ([2]; 72 h) [µM]	GI50 [1] [µM]	GI50 [2] [µM]
> 3	> 3	–	–	Cc1sc2c(c1C)C(c1ccc([C@H]3C[C@@H](C4CCN(c5ccc(C(=O)N[C@H]6CC[C@H](Oc7ccc(C#N)c(Cl)c7)CC6)nn5)CC4)C3)cc1)=N[C@@H](Cc1ncco1)c1nnc(C)n1-2 [I-371]	> 3	> 3	–	–
< 0.5	< 0.5	–	–	Cc1sc2c(c1C)C(c1ccc([C@H]3C[C@@H](C4CCN(c5ccc(C(=O)N[C@H]6CC[C@H](Oc7ccc(C#N)c(Cl)c7)CC6)nn5)CC4)C3)cc1)=N[C@H](Cc1ncco1)c1nnc(C)n1-2 [I-372]	< 0.5	< 0.5	–	–
< 0.5	< 0.5	–	–	Cc1sc2c(c1C)C(c1ccc([C@H]3C[C@H](C4CCN(c5ccc(C(=O)N[C@H]6CC[C@H](Oc7ccc(C#N)c(Cl)c7)CC6)nn5)CC4)C3)cc1)=N[C@@H](Cc1ncco1)c1nnc(C)n1-2 [I-373]	> 3	< 0.5	–	–
> 3	> 3	–	–	Cc1sc2c(c1C)C(c1ccc([C@H]3C[C@@H]([C@@H]4CCCN(c5ccc(C(=O)N[C@H]6CC[C@H](Oc7ccc(C#N)c(Cl)c7)CC6)nn5)C4)C3)cc1)=N[C@@H](Cc1ncco1)c1nnc(C)n1-2 [I-374]	> 3	> 3	–	–
< 0.5	> 3	–	–	Cc1sc2c(c1C)C(c1ccc([C@H]3C[C@H]([C@H]4CCCN(c5ccc(C(=O)N[C@H]6CC[C@H](Oc7ccc(C#N)c(Cl)c7)CC6)nn5)C4)C3)cc1)=N[C@@H](Cc1ncco1)c1nnc(C)n1-2 [I-375]	> 3	< 0.5	–	–
< 0.5	< 0.5	–	–	Cc1sc2c(c1C)C(c1ccc([C@H]3C[C@@H]([C@H]4CCCN(c5ccc(C(=O)N[C@H]6CC[C@H](Oc7ccc(C#N)c(Cl)c7)CC6)nn5)C4)C3)cc1)=N[C@@H](Cc1ncco1)c1nnc(C)n1-2 [I-376]	< 0.5	< 0.5	–	–
< 0.5	< 0.5	–	–	Cc1sc2c(c1C)C(c1ccc([C@H]3C[C@H]([C@@H]4CCCN(c5ccc(C(=O)N[C@H]6CC[C@H](Oc7ccc(C#N)c(Cl)c7)CC6)nn5)C4)C3)cc1)=N[C@@H](Cc1ncco1)c1nnc(C)n1-2 [I-377]	< 0.5	< 0.5	–	–
< 0.5	0.5 to 1.5	–	–	Cc1sc2c(c1C)C(c1ccc(C3CC([C@@H]4CCCN(c5ccc(C(=O)N[C@H]6CC[C@H](Oc7ccc(C#N)c(Cl)c7)CC6)nn5)C4)C3)cc1)=N[C@@H](Cc1ncco1)c1nnc(C)n1-2 (some centres unmarked) [I-378]	> 3	< 0.5	–	–
< 0.5	< 0.5	–	–	Cc1sc2c(c1C)C(c1ccc([C@H]3C[C@H](C4CC5(CCN(c6ccc(C(=O)N[C@H]7CC[C@H](Oc8ccc(C#N)c(Cl)c8)CC7)nn6)CC5)C4)C3)cc1)=N[C@H](Cc1ncco1)c1nnc(C)n1-2 [I-383]	> 3	< 0.5	–	–
